# According to ChEMBL document CHEMBL1201862, “PubChem BioAssay data set” (2004):
#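 Where inhibition never reached the appropriate level, the endpoint shown equals the highest concentration tested. Otherwise, values were interpolated linearly from a five-concentration, 48-hour dose response in 96-well plates. Abbreviation: GI50, concentration required for 50% inhibition of growth.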 Calls of active or inactive are those of the source. No stated cut-off is given here; in the data, active = GI50 up to about 1.1 µM and inactive = higher.
# What was measured:
# Assay in all cases: inhibition of tumour cell growth, NCI panel, 48 h
# [1] = test system: 786-0
# [2] = test system: A498
# [3] = test system: A549
# [4] = test system: ACHN
# [5] = test system: CAKI-1
# [6] = test system: CCRF-CEM
# [7] = test system: COLO 205
# [8] = test system: DLD-1
# [9] = test system: DMS-114
# [10] = test system: DMS-273
# [11] = test system: DU-145
# [12] = test system: EKVX
# [13] = test system: HCC 2998
# [14] = test system: HCT-116
# [15] = test system: HCT-15
# [16] = test system: HL-60
# [17] = test system: HOP-18
# [18] = test system: HOP-92
# [19] = test system: HT-29
# [20] = test system: Hs-578T
# [21] = test system: IGROV-1
# [22] = test system: K562
# [23] = test system: KM-20L2
# [24] = test system: KM12
# [25] = test system: LOX IMVI
# [26] = test system: LXFL 529
# [27] = test system: M14
# [28] = test system: M19-MEL
# [29] = test system: MCF7
# [30] = test system: MDA-MB-231
# [31] = test system: MDA-MB-435
# [32] = test system: MDA-N
# [33] = test system: MOLT-4
# [34] = test system: Malme-3M
# [35] = test system: NCI-H226
# [36] = test system: NCI-H23
# [37] = test system: NCI-H460
# [38] = test system: NCI-H522
# [39] = test system: NCI/ADR-RES
# [40] = test system: OVCAR-3
# [41] = test system: OVCAR-4
# [42] = test system: OVCAR-5
# [43] = test system: OVCAR-8
# [44] = test system: PC-3
# [45] = test system: RPMI-8226
# [46] = test system: RXF 393
# [47] = test system: SF-268
# [48] = test system: SF-295
# [49] = test system: SF-539
# [50] = test system: SK-MEL-28
# [51] = test system: SK-MEL-2
# [52] = test system: SK-MEL-5
# [53] = test system: SK-OV-3
# [54] = test system: SN12C
# [55] = test system: SNB-19
# [56] = test system: SNB-75
# [57] = test system: SNB-78
# [58] = test system: SR
# [59] = test system: SW-620
# [60] = test system: T47D
# [61] = test system: TK-10
# [62] = test system: U-251
# [63] = test system: UACC-257
# [64] = test system: UACC-62
# [65] = test system: UO-31
# [66] = test system: XF498
# [67] = test system: HOP-62
# [68] = test system: RXF 631
smiles,measurement,setting,value
O=C1c2cc(CCl)sc2C(=O)c2ccsc21,GI50,[1],1530 nM (inactive)
same,GI50,[2],1630 nM (inactive)
same,GI50,[3],199 nM (active)
same,GI50,[4],327 nM (active)
same,GI50,[5],1720 nM (inactive)
same,GI50,[6],173 nM (active)
same,GI50,[7],1370 nM (inactive)
same,GI50,[8],933 nM (active)
same,GI50,[9],163 nM (active)
same,GI50,[10],306 nM (active)
same,GI50,[11],191 nM (active)
same,GI50,[12],1240 nM (inactive)
same,GI50,[13],1670 nM (inactive)
same,GI50,[14],189 nM (active)
same,GI50,[15],393 nM
same,GI50,[16],55.9 nM (active)
same,GI50,[17],264 nM (active)
same,GI50,[18],427 nM (active)
same,GI50,[19],1160 nM (inactive)
same,GI50,[20],233 nM (active)
same,GI50,[21],1490 nM (inactive)
same,GI50,[22],158 nM (active)
same,GI50,[23],1450 nM (inactive)
same,GI50,[24],1620 nM (inactive)
same,GI50,[25],< 24.8 nM (active)
same,GI50,[26],243 nM (active)
same,GI50,[27],< 18.7 nM (active)
same,GI50,[28],< 10 nM (active)
same,GI50,[29],197 nM (active)
same,GI50,[30],232 nM (active)
same,GI50,[31],18.7 nM (active)
same,GI50,[32],18.3 nM (active)
same,GI50,[33],179 nM (active)
same,GI50,[34],38.7 nM (active)
same,GI50,[35],1690 nM (inactive)
same,GI50,[36],61.8 nM (active)
same,GI50,[37],1310 nM (inactive)
same,GI50,[38],422 nM (active)
same,GI50,[39],200 nM (active)
same,GI50,[40],207 nM (active)
same,GI50,[41],184 nM (active)
same,GI50,[42],1850 nM (inactive)
same,GI50,[43],215 nM (active)
same,GI50,[44],254 nM (active)
same,GI50,[45],184 nM (active)
same,GI50,[46],231 nM (active)
same,GI50,[47],195 nM (active)
same,GI50,[48],96.6 nM (active)
same,GI50,[49],228 nM (active)
same,GI50,[50],63.4 nM (active)
same,GI50,[51],153 nM (active)
same,GI50,[52],41.6 nM (active)
same,GI50,[53],1850 nM (inactive)
same,GI50,[54],277 nM (active)
same,GI50,[55],225 nM (active)
same,GI50,[56],192 nM (active)
same,GI50,[57],292 nM (active)
same,GI50,[58],142 nM (active)
same,GI50,[59],195 nM (active)
same,GI50,[60],241 nM (active)
same,GI50,[61],1950 nM (inactive)
same,GI50,[62],333 nM (active)
same,GI50,[63],181 nM (active)
same,GI50,[64],178 nM (active)
same,GI50,[65],301 nM (active)
same,GI50,[66],1730 nM (inactive)
COC(=O)C(Cc1cc(OC)c(OC)c(OC)c1)C(=O)OC,GI50,[1],> 320000 nM (inactive)
same,GI50,[3],> 320000 nM (inactive)
same,GI50,[4],> 320000 nM (inactive)
same,GI50,[5],> 320000 nM (inactive)
same,GI50,[6],> 320000 nM (inactive)
same,GI50,[7],> 320000 nM (inactive)
same,GI50,[8],> 320000 nM (inactive)
same,GI50,[9],> 320000 nM (inactive)
same,GI50,[10],> 320000 nM (inactive)
same,GI50,[12],> 320000 nM (inactive)
same,GI50,[13],> 320000 nM (inactive)
same,GI50,[15],> 320000 nM
same,GI50,[16],> 320000 nM (inactive)
same,GI50,[67],> 320000 nM (inactive)
same,GI50,[18],> 320000 nM (inactive)
same,GI50,[19],> 320000 nM (inactive)
same,GI50,[21],> 320000 nM (inactive)
same,GI50,[22],> 320000 nM (inactive)
same,GI50,[23],> 320000 nM (inactive)
same,GI50,[24],> 320000 nM (inactive)
same,GI50,[25],> 320000 nM (inactive)
same,GI50,[26],> 320000 nM (inactive)
same,GI50,[28],> 320000 nM (inactive)
same,GI50,[33],> 320000 nM (inactive)
same,GI50,[34],> 320000 nM (inactive)
same,GI50,[36],> 320000 nM (inactive)
same,GI50,[37],> 320000 nM (inactive)
same,GI50,[38],> 320000 nM (inactive)
same,GI50,[40],> 320000 nM (inactive)
same,GI50,[42],> 320000 nM (inactive)
same,GI50,[43],> 320000 nM (inactive)
same,GI50,[45],> 320000 nM (inactive)
same,GI50,[46],> 320000 nM (inactive)
same,GI50,[68],> 320000 nM (inactive)
same,GI50,[47],> 320000 nM (inactive)
same,GI50,[48],> 320000 nM (inactive)
same,GI50,[50],> 320000 nM (inactive)
same,GI50,[51],> 320000 nM (inactive)
same,GI50,[52],> 320000 nM (inactive)
same,GI50,[53],> 320000 nM (inactive)
same,GI50,[54],> 320000 nM (inactive)
same,GI50,[58],> 320000 nM (inactive)
same,GI50,[59],> 320000 nM (inactive)
same,GI50,[61],> 320000 nM (inactive)
same,GI50,[62],> 320000 nM (inactive)
same,GI50,[63],> 320000 nM (inactive)
same,GI50,[64],> 320000 nM (inactive)
same,GI50,[66],> 320000 nM (inactive)
